Experimental data: the supplement of paper PMC11208160

Assay: recombinant UMI read abundance after kanamycin selection (control-corrected) (log10(CPM+1)); higher = more efficient recombination; extreme values may be limits of the assay; sequences stand for … in AGTGCAGAGAAAATCGGCCAGTTTTCTCTGCCTGCAGTCCGCATGCCGTGGGACCCCTTGGGTTCTAACCTGTTGCCTAGATTTATGCAGCGGACTGCCTTTCTCCCAAAGTGATAAACCGG…AGGTTGGTTTCACT; site = the 11-nt donor
Method in brief: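 In Escherichia coli, a pool of donor and donor-binding-loop pairs, each with a 12-nt UMI, was tested for the IS621 bridge recombinase. Plating was on IPTG (0.07 mM) plus kanamycin, or without selection, in two replicates. Recombinant UMIs were amplified by PCR across the donor–target junction and sequenced, and counts were reported as log10(CPM+1) after averaging and control-derived scaling.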
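Also: IS621 bridge recombinase in Escherichia coli cells against a fixed T5 target plasmid.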

“CGGTCTTCATGGACCGGTTTTCCCGGTAATCCGTATTTGCT (site CGGTCTTCTAG)” and “CGGTGAGCATGGACCGGTTTTCCCGGTAATCCGTATTTGGA (site CGGTGAGCTTC)” are within 0.2 log units of each other in “recombinant UMI read abundance (log10)” value: 1.49 for the first, 1.56 for the second.

Compared with “CGGTGGACATGGACCGGTTTTCCCGGTAATCCGTATTTGGG (site CGGTGGACTCC)”, “CGTAACCCATGGACCGGTTTTCCCGGTAATCCGTATTTGGC (site CGTAACCCTGC)” is higher in “recombinant UMI read abundance (log10)” value: 0.024 for the first, 0.629 for the second.

First: CGTAACTCATGGACCGGTTTTCCCGGTAATCCGTATTTGTA (site CGTAACTCTTA)
Second: CGTAAGACATGGACCGGTTTTCCCGGTAATCCGTATTTGCA (site AGGAAGACTTG)
The “recombinant UMI read abundance (log10)” value of the first is higher: 2.2 for the first, 0 for the second.

First: CGTAAGACATGGACCGGTTTTCCCGGTAATCCGTATTTGCA (site CGTAAGACTTG)
Second: CGTAATACATGGACCGGTTTTCCCGGTAATCCGTATTTGGC (site CATAATACTGC)
The “recombinant UMI read abundance (log10)” value of the first is higher: 2.68 for the first, 0 for the second.

First: CGTAATACATGGACCGGTTTTCCCGGTAATCCGTATTTGGC (site CCTAATACTGC)
Second: CGTAATACATGGACCGGTTTTCCCGGTAATCCGTATTTGGC (site CGTAATACTGC)
The “recombinant UMI read abundance (log10)” value of the first is lower: 0 for the first, 1.22 for the second.

“CGTAATACATGGACCGGTTTTCCCGGTAATCCGTATTTGGC (site CTTAATACTGC)” and “CGTAATACATGGACCGGTTTTCCCGGTAATCCGTATTTGTT (site CGGAATCCTAA)” are the same in “recombinant UMI read abundance (log10)” value: 0 for the first, 0 for the second.

“CGTAATACATGGACCGGTTTTCCCGGTAATCCGTATTTGTT (site CGTAATACTAA)” and “CGTATAACATGGACCGGTTTTCCCGGTAATCCGTATTTGAT (site CGTATAACTAT)” are within 0.2 log units of each other in “recombinant UMI read abundance (log10)” value: 0.809 for the first, 0.94 for the second.

First: CGTCATGCATGGACCGGTTTTCCCGGTAATCCGTATTTGAC (site CGTCATGCTGT)
Second: CGTCTTTCATGGACCGGTTTTCCCGGTAATCCGTATTTGCA (site CGTCTTTCTTG)
The “recombinant UMI read abundance (log10)” value of the first is higher: 1.2 for the first, 0 for the second.

Going from “CGTGAAACATGGACCGGTTTTCCCGGTAATCCGTATTTGTT (site CGTGAAACTAA)” to “CGTGAAACATGGACCGGTTTTCCCGGTAATCCGTATTTGTT (site CGTGCAACTAA)”, the “recombinant UMI read abundance (log10)” value falls from 1.61 to 0.

“CGTGAAACATGGACCGGTTTTCCCGGTAATCCGTATTTGTT (site CGTGGAACTAA)” and “CGTGAAACATGGACCGGTTTTCCCGGTAATCCGTATTTGTT (site CGTGTAACTAA)” are within 0.2 log units of each other in “recombinant UMI read abundance (log10)” value: 0 for the first, 0.0209 for the second.

Compared with “CGTGAGGCATGGACCGGTTTTCCCGGTAATCCGTATTTGCC (site CGTGAGGCTGG)”, “CGTGCCCCATGGACCGGTTTTCCCGGTAATCCGTATTTGGC (site CGTGCCCCTGC)” is lower in “recombinant UMI read abundance (log10)” value: 0.525 for the first, 0 for the second.

First: CGTGGAACATGGACCGGTTTTCCCGGTAATCCGTATTTGCG (site CGTGGAACTCG)
Second: CGTGGAGCATGGACCGGTTTTCCCGGTAATCCGTATTTGTT (site CGTGGAACTAA)
The “recombinant UMI read abundance (log10)” value of the first is higher: 2.05 for the first, 1.66 for the second.

Going from “CGTGGAGCATGGACCGGTTTTCCCGGTAATCCGTATTTGTT (site CGTGGACCTAA)” to “CGTGGAGCATGGACCGGTTTTCCCGGTAATCCGTATTTGTT (site CGTGGAGCTAA)”, the “recombinant UMI read abundance (log10)” value rises from 0.00893 to 2.02.

Compared with “CGTGGAGCATGGACCGGTTTTCCCGGTAATCCGTATTTGTT (site CGTGGATCTAA)”, “CGTGGATCATGGACCGGTTTTCCCGGTAATCCGTATTTGTT (site CGTGGAACTAA)” is lower in “recombinant UMI read abundance (log10)” value: 1.23 for the first, 0.0027 for the second.

“CGTGGATCATGGACCGGTTTTCCCGGTAATCCGTATTTGTT (site CGTGGACCTAA)” and “CGTGGATCATGGACCGGTTTTCCCGGTAATCCGTATTTGTT (site CGTGGAGCTAA)” are within 0.2 log units of each other in “recombinant UMI read abundance (log10)” value: 0.0255 for the first, 0 for the second.

First: CGTGGATCATGGACCGGTTTTCCCGGTAATCCGTATTTGTT (site CGTGGATCTAA)
Second: CGTGGTACATGGACCGGTTTTCCCGGTAATCCGTATTTGTT (site CGTGGAACTAA)
The “recombinant UMI read abundance (log10)” value of the first is higher: 2.34 for the first, 0.177 for the second.

“CGTGGTACATGGACCGGTTTTCCCGGTAATCCGTATTTGTT (site CGTGGCACTAA)” and “CGTGGTACATGGACCGGTTTTCCCGGTAATCCGTATTTGTT (site CGTGGGACTAA)” are within 0.2 log units of each other in “recombinant UMI read abundance (log10)” value: 0.0912 for the first, 0 for the second.

Going from “CGTGGTACATGGACCGGTTTTCCCGGTAATCCGTATTTGTT (site CGTGGTACTAA)” to “CGTGTGGCATGGACCGGTTTTCCCGGTAATCCGTATTTGCT (site CGTATGGCTAG)”, the “recombinant UMI read abundance (log10)” value falls from 1.25 to 1.01.

Going from “CGTGTGGCATGGACCGGTTTTCCCGGTAATCCGTATTTGCT (site CGTCTGGCTAG)” to “CGTGTGGCATGGACCGGTTTTCCCGGTAATCCGTATTTGCT (site CGTGTGGCTAG)”, the “recombinant UMI read abundance (log10)” value rises from 0.00526 to 3.26.

Compared with “CGTGTGGCATGGACCGGTTTTCCCGGTAATCCGTATTTGCT (site CGTTTGGCTAG)”, “CGTGTTGCATGGACCGGTTTTCCCGGTAATCCGTATTTGTC (site CGTGTTGCTGA)” is higher in “recombinant UMI read abundance (log10)” value: 0 for the first, 2.08 for the second.

Compared with “CGTTAGGCATGGACCGGTTTTCCCGGTAATCCGTATTTGAG (site CGTTAGACTCT)”, “CGTTAGGCATGGACCGGTTTTCCCGGTAATCCGTATTTGAG (site CGTTAGCCTCT)” is lower in “recombinant UMI read abundance (log10)” value: 0.855 for the first, 0.00789 for the second.

Compared with “CGTTAGGCATGGACCGGTTTTCCCGGTAATCCGTATTTGAG (site CGTTAGGCTCT)”, “CGTTAGGCATGGACCGGTTTTCCCGGTAATCCGTATTTGAG (site CGTTAGTCTCT)” is lower in “recombinant UMI read abundance (log10)” value: 1.23 for the first, 0.173 for the second.

Going from “CGTTATCCATGGACCGGTTTTCCCGGTAATCCGTATTTGTT (site CGGAATCCTAA)” to “CGTTATCCATGGACCGGTTTTCCCGGTAATCCGTATTTGTT (site CGTTATCCTAA)”, the “recombinant UMI read abundance (log10)” value rises from 0 to 0.375.

Going from “CGTTCATCATGGACCGGTTTTCCCGGTAATCCGTATTTGCT (site CGATCATCTAG)” to “CGTTCATCATGGACCGGTTTTCCCGGTAATCCGTATTTGCT (site CGCTCATCTAG)”, the “recombinant UMI read abundance (log10)” value rises from 0 to 1.41.

Compared with “CGTTCATCATGGACCGGTTTTCCCGGTAATCCGTATTTGCT (site CGGTCATCTAG)”, “CGTTCATCATGGACCGGTTTTCCCGGTAATCCGTATTTGCT (site CGTTCATCTAG)” is higher in “recombinant UMI read abundance (log10)” value: 0 for the first, 1.35 for the second.

First: CGTTCCCCATGGACCGGTTTTCCCGGTAATCCGTATTTGTA (site AGTTCCCCTTA)
Second: CGTTCCCCATGGACCGGTTTTCCCGGTAATCCGTATTTGTA (site CGTTCCCCTTA)
The “recombinant UMI read abundance (log10)” value of the first is lower: 0.00297 for the first, 0.531 for the second.

“CGTTCCCCATGGACCGGTTTTCCCGGTAATCCGTATTTGTA (site GGTTCCCCTTA)” and “CGTTCCCCATGGACCGGTTTTCCCGGTAATCCGTATTTGTA (site TGTTCCCCTTA)” are within 0.2 log units of each other in “recombinant UMI read abundance (log10)” value: 0.00349 for the first, 0.00473 for the second.

Going from “CGTTCGGCATGGACCGGTTTTCCCGGTAATCCGTATTTGCT (site CGTTAGGCTAG)” to “CGTTCGGCATGGACCGGTTTTCCCGGTAATCCGTATTTGCT (site CGTTCGGCTAG)”, the “recombinant UMI read abundance (log10)” value rises from 0.00568 to 1.63.

With “CGTTCGGCATGGACCGGTTTTCCCGGTAATCCGTATTTGCT (site CGTTGGGCTAG)” the “recombinant UMI read abundance (log10)” value was 0.00466.
